Data as given in US8372878B2, “Aminoguanidines as melanocortin receptor ligands” (Anamar AB, priority 2006, dated 2013).

Key:
MC1-Receptor = MC1-Receptor (Mus musculus, UniProt Q01727); experiment: Affinity for the MC1-receptor, binding assay with I125-NDP-αMSH as ligand; settings: read-out: Affinity for MC-receptors Ki MC1
Method: Test 1. Affinity for the MC1-Receptor
The binding assay was carried out essentially as described by Lunec et al, Melanoma Res 1992; 2; 5-12, using I^125-NDP-αMSH as ligand.

MC1 = MC1 (Homo sapiens, UniProt Q01726); experiment: Stimulation of cAMP, MC1; format: cell-based
MC1, sequence (Q01726 whole entry): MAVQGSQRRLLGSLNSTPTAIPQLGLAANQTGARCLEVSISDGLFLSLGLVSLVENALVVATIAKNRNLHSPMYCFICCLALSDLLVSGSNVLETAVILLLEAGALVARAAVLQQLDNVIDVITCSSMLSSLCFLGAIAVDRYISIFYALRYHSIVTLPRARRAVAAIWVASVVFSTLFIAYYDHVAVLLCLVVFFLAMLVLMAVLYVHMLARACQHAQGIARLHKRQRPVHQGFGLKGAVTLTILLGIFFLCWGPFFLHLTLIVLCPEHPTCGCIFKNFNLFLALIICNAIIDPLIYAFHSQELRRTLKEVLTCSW
Method: (§1) Test 3. cAMP The stimulation of cAMP was carried out essentially as described by Schiöth et al, Br J Pharmacol 1998; 124; 75-82.

MC3 [1] = target: T1, MC3 (Homo sapiens, UniProt P41968); experiment: Stimulation of cAMP, MC3; format: cell-based
T1 sequence (P41968 whole entry): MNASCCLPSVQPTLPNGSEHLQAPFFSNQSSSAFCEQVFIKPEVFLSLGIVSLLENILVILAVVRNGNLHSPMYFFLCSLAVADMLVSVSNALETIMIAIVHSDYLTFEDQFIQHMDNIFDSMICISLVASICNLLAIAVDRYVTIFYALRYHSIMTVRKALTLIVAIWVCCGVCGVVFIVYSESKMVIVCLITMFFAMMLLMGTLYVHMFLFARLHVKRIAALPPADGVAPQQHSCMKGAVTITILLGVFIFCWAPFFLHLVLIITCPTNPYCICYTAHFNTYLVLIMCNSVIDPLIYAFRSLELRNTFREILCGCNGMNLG
Method: as §1

MC4 [2] = target: T2, MC4 (Homo sapiens, UniProt P32245); experiment: Stimulation of cAMP, MC4; format: cell-based
T2 sequence (P32245 whole entry): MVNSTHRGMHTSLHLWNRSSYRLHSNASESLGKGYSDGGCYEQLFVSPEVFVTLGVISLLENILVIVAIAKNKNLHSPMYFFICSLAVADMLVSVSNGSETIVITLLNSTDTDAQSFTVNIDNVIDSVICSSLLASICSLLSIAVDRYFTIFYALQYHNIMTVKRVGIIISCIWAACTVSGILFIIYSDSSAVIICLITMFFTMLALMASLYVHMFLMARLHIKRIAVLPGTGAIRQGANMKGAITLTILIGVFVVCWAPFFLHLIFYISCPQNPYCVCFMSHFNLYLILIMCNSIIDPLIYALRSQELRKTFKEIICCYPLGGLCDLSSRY
Method: as §1

MC5 [3] = target: T3, MC5 (Homo sapiens, UniProt P33032); experiment: Stimulation of cAMP, MC5; format: cell-based
T3 sequence (P33032 whole entry): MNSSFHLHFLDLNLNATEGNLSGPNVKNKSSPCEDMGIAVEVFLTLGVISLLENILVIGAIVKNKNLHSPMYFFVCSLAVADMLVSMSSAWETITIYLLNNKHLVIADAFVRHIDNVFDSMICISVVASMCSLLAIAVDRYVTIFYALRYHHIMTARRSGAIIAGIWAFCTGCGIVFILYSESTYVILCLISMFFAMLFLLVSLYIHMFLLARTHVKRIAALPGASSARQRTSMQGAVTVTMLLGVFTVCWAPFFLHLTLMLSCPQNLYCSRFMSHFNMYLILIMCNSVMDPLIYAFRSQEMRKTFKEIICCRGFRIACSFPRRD
Method: as §1

MC3 [4] = target: T1, MC3; experiment: Affinity for the MC3-receptors, binding assay with I125-NDP-αMSH as ligand; settings: read-out: Affinity for MC-receptors Ki MC3
Method: (§2) Test 2. Affinity for the MC3-Receptors, the MC4-Receptors and the MC5-Receptors
(§3) The binding assays were carried out essentially as described by Szardenings et al, J Biol Chem 1997; 272; 27943-27948 and Schiöth et al, FEBS Lett 1997; 410; 223-228 using I^125-NDP-αMSH as ligand.

MC4 [5] = target: T2, MC4; experiment: Affinity for the MC4-receptors, binding assay with I125-NDP-αMSH as ligand; settings: read-out: Affinity for MC-receptors Ki MC4
Method: as §2, §3

MC5 [6] = target: T3, MC5; experiment: Affinity for the MC5-receptors, binding assay with I125-NDP-αMSH as ligand; settings: read-out: Affinity for MC-receptors Ki MC5
Method: as §2, §3

MC1-Receptor, sequence (Q01727 whole entry): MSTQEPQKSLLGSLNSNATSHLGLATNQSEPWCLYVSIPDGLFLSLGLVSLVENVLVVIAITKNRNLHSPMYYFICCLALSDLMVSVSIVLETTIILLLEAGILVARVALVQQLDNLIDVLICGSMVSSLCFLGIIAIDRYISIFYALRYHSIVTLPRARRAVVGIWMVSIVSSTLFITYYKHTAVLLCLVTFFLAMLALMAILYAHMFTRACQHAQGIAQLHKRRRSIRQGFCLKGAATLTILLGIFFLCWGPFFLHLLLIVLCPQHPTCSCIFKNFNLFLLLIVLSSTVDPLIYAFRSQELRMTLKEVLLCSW

Row | Compound | Ki (MC1-Receptor) | Influence on cAMP MC1c (MC1) | Influence on cAMP MC3c (MC3 [1]) | Influence on cAMP MC4c (MC4 [2]) | Influence on cAMP MC5c (MC5 [3]) | Ki (MC3 [4]) | Ki (MC4 [5]) | Ki (MC5 [6])
1 | CCOC(=O)c1cccc(C=NNC(=N)N)c1Cl.O=C(O)C(F)(F)F [1:3, N-(2-Chloro-(3-ethoxycarbonyl)-benzylideneamino)guanidine trifluoroacetate] | 3.4 µM | 0 | 0 | 7 | 0 | – | – | –
2 | CSc1c(Cl)cccc1C=NNC(=N)N.Cl [Compound 1:1, N-(2-Methylthio-3-chlorobenzylideneamino)guanidine hydrochloride] | 0.7 µM | 1 | 2 | 13 | 1 | 19.7 µM | 0.6 µM | 19.7 µM
